Data as given in PubChem BioAssay AID330 (DTP/NCI, 2004).
“And” between values parts separate entries of the source, which are not always exact repeats. Identical values can stand only once. Inconclusive results and toxic doses are left out. How the source made its calls: active means survival T/C of 150% or more; inactive means T/C below 125% in these data.

Test system: P388 leukemia ip, CD2F1 mice, survival T/C
Assay: NCI In Vivo Anticancer Drug Screen. Data for tumor model P388 Leukemia (intraperitoneal) in CD2F1 (CDF1) mice
Conditions: endpoint: median survival time, higher = longer survival
In short: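 Mice carrying the transplanted tumor received test compound or vehicle. Survival was recorded in each group, and the value is the treated-group measurement divided by that of the vehicle-treated control group.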

[1] = dose: 50.0 mg/kg/injection, schedule: Q01DX009 (ip), vehicle: saline with Tween-80
[2] = dose: 50.0 mg/kg/injection, schedule: Q04DX003 (ip), vehicle: saline with Tween-80
[3] = dose: 100.0 mg/kg/injection, schedule: Q01DX009 (ip), vehicle: saline with Tween-80
[4] = dose: 100.0 mg/kg/injection, schedule: Q04DX003 (ip), vehicle: saline with Tween-80
[5] = dose: 200.0 mg/kg/injection, schedule: Q01DX009 (ip), vehicle: saline with Tween-80
[6] = dose: 50.0 mg/kg/injection, schedule: Q01DX009 (ip), vehicle: saline
[7] = dose: 50.0 mg/kg/injection, schedule: Q01DX009 (ip), vehicle: Klucel (hydroxypropylcellulose) (HPC)
[8] = dose: 100.0 mg/kg/injection, schedule: Q01DX009 (ip), vehicle: Klucel (hydroxypropylcellulose) (HPC)
[9] = dose: 200.0 mg/kg/injection, schedule: Q01DX009 (ip), vehicle: Klucel (hydroxypropylcellulose) (HPC)
[10] = dose: 50.0 mg/kg/injection, schedule: Q01DX005 (ip), vehicle: saline with Tween-80
[11] = dose: 100.0 mg/kg/injection, schedule: Q01DX005 (ip), vehicle: saline with Tween-80
[12] = dose: 200.0 mg/kg/injection, schedule: Q01DX005 (ip), vehicle: saline with Tween-80
[13] = dose: 100.0 mg/kg/injection, schedule: Q04DX003 (ip), vehicle: Klucel (hydroxypropylcellulose) (HPC)
[14] = dose: 200.0 mg/kg/injection, schedule: Q04DX003 (ip), vehicle: Klucel (hydroxypropylcellulose) (HPC)

Measured: T/C

C=C(Cl)CSc1ncnc2nc[nH]c12
inactive: [1] 100 % of control | [2] 95 % of control | [3] 109 % of control | [4] 91 % of control | [5] 109 % of control | dose: 200.0 mg/kg/injection, schedule: Q04DX003 (ip), vehicle: saline with Tween-80 91 % of control

CC[N+](CC)(CC)CC(=O)c1ccc(Br)cc1
inactive: dose: 12.5 mg/kg/injection, schedule: Q01DX009 (ip), vehicle: saline 100 % of control | dose: 25.0 mg/kg/injection, schedule: Q01DX009 (ip), vehicle: saline 104 % of control | [6] 95 % of control

CN1Cc2c(c3c(n2C)CCCC3=O)C(O)C1 (stereo unspecified)
inactive: dose: 50.0 mg/kg/injection, schedule: Q04DX002 (ip), vehicle: saline 106 % of control | dose: 100.0 mg/kg/injection, schedule: Q04DX002 (ip), vehicle: saline 100 % of control | dose: 200.0 mg/kg/injection, schedule: Q04DX002 (ip), vehicle: saline 102 % of control

CCCCCCCCCCCCCCCCOC(=O)c1ccc(O)cc1
inactive: [7] 95 % of control | [8] 92 % of control | [9] 103 % of control

NNC(=O)c1ccc(N)cc1
inactive: [1] 100 % of control | [2] 104 % of control | [3] 100 % of control | [4] 104 % of control | [5] 100 % of control

CCC[CH2][Sn]1([CH2]CCC)[S]CC[N]1S(=O)(=O)c1ccc(C)cc1
inactive: dose: 1.0 mg/kg/injection, schedule: Q01DX009 (ip), vehicle: gum acacia 114 % of control | dose: 1.5 mg/kg/injection, schedule: Q01DX009 (ip), vehicle: gum acacia 106 % of control | dose: 2.25 mg/kg/injection, schedule: Q01DX009 (ip), vehicle: gum acacia 120 % of control

O=C(O)[C@@H]1CCC(c2ccccc2)=N1
inactive: dose: 50.0 mg/kg/injection, schedule: Q01DX005 (ip), vehicle: distilled water + alcohol 98 % of control | dose: 100.0 mg/kg/injection, schedule: Q01DX005 (ip), vehicle: distilled water + alcohol 98 % of control | dose: 200.0 mg/kg/injection, schedule: Q01DX005 (ip), vehicle: distilled water + alcohol 98 % of control

C[n+]1ccc(C#N)c(C#N)c1
inactive: dose: 3.75 mg/kg/injection, schedule: Q01DX005 (ip), vehicle: Klucel (hydroxypropylcellulose) (HPC) 102 % of control | dose: 7.5 mg/kg/injection, schedule: Q01DX005 (ip), vehicle: Klucel (hydroxypropylcellulose) (HPC) 116 % of control | dose: 15.0 mg/kg/injection, schedule: Q01DX005 (ip), vehicle: Klucel (hydroxypropylcellulose) (HPC) 103 % of control | dose: 30.0 mg/kg/injection, schedule: Q01DX005 (ip), vehicle: Klucel (hydroxypropylcellulose) (HPC) 108 % of control and 110 % of control

Nc1ncnc2c1ncn2C(/C=N/Nc1ccccc1)OC(/C=N\Nc1ccccc1)CO (stereo unspecified)
inactive: [10] 106 % of control | [11] 106 % of control | [12] 107 % of control

CC(=O)C(=Cc1ccc(O)cc1)C(C)=O
inactive: [10] 100 % of control | [11] 103 % of control | [12] 103 % of control

O=C/C=C/C=C/C=C/c1ccccc1
inactive: dose: 60.0 mg/kg/injection, schedule: Q01DX005 (ip), vehicle: distilled water + alcohol 100 % of control | dose: 120.0 mg/kg/injection, schedule: Q01DX005 (ip), vehicle: distilled water + alcohol 100 % of control | dose: 240.0 mg/kg/injection, schedule: Q01DX005 (ip), vehicle: distilled water + alcohol 96 % of control

CCCCCCCC[N+](C)(C)CC#CC[N+](C)(C)CCCCCCCC
inactive: dose: 6.25 mg/kg/injection, schedule: Q04DX003 (ip), vehicle: saline 96 % of control | dose: 12.5 mg/kg/injection, schedule: Q04DX003 (ip), vehicle: saline 103 % of control

CC1(C)OC2C(CCP(=O)(O)O)OC(c3nc(C(N)=O)cs3)C2O1 (stereo unspecified)
inactive: dose: 100.0 mg/kg/injection, schedule: Q04DX003 (ip), vehicle: suspension in saline 99 % of control | dose: 200.0 mg/kg/injection, schedule: Q04DX003 (ip), vehicle: suspension in saline 100 % of control | dose: 400.0 mg/kg/injection, schedule: Q04DX003 (ip), vehicle: suspension in saline 119 % of control

COc1ccc(NC(Cc2ccccc2)=NC(C)(C)C)cc1
inactive: [1] 98 % of control | [3] 89 % of control | [5] 94 % of control

OCC(Cl)Cc1cnc[nH]1 (stereo unspecified)
inactive: [1] 102 % of control | [3] 99 % of control | [5] 93 % of control

COC(=O)C1c2cc3c(c(O)c2C(OC2OC(C)C(OC)C(C)(OC)C2OC)CC1(C)O)C(=O)c1c(O)cc2c(c1C3=O)OC1OC2(C)C(OC(C)=O)C(N(C)C)C1OC(C)=O (stereo unspecified)
inactive: dose: 3.12 mg/kg/injection, schedule: Q04DX003 (ip), vehicle: other 87 % of control | dose: 6.25 mg/kg/injection, schedule: Q04DX003 (ip), vehicle: other 103 % of control

N#[N+]c1ccc2c(S(=O)(=O)Nc3ccc(-c4ccc(NS(=O)(=O)c5cccc6c([O-])c([N+]#N)ccc56)cc4)cc3)cccc2c1[O-]
inactive: [7] 102 % of control | [8] 99 % of control | [9] 98 % of control

CC(C)C1C(=O)N(c2ccccc2)N(C)C1C (stereo unspecified)
inactive: [13] 100 % of control | [14] 104 % of control

CC(=O)NC(Cc1cc(I)c(O)c(I)c1)C(=O)O (stereo unspecified)
inactive: dose: 25.0 mg/kg/injection, schedule: Q01DX009 (ip), vehicle: Klucel (hydroxypropylcellulose) (HPC) 94 % of control | [7] 88 % of control | [6] 100 % of control | [8] 94 % of control | dose: 100.0 mg/kg/injection, schedule: Q01DX009 (ip), vehicle: saline 107 % of control | [9] 94 % of control | dose: 200.0 mg/kg/injection, schedule: Q01DX009 (ip), vehicle: saline 105 % of control

CC[P+](CC)(c1ccccc1)c1ccccc1
inactive: dose: 3.12 mg/kg/injection, schedule: Q01DX005 (ip), vehicle: saline 94 % of control | dose: 6.25 mg/kg/injection, schedule: Q01DX005 (ip), vehicle: saline 95 % of control | dose: 12.5 mg/kg/injection, schedule: Q01DX005 (ip), vehicle: saline 100 % of control

NC(N)=N/N=C/COc1cccnc1
inactive: dose: 60.0 mg/kg/injection, schedule: Q01DX005 (ip), vehicle: saline with Tween-80 97 % of control | dose: 120.0 mg/kg/injection, schedule: Q01DX005 (ip), vehicle: saline with Tween-80 100 % of control | dose: 240.0 mg/kg/injection, schedule: Q01DX005 (ip), vehicle: saline with Tween-80 97 % of control

CCCCCCCCCCCCCCCC[N+](C)(C)CCN=[N+]=[N-]
inactive: dose: 12.5 mg/kg/injection, schedule: Q01DX009 (ip), vehicle: saline with Tween-80 110 % of control | dose: 25.0 mg/kg/injection, schedule: Q01DX009 (ip), vehicle: saline with Tween-80 107 % of control

CCCCOCN1C(=O)NC(c2ccccc2)(c2ccccc2)C1=O
inactive: dose: 60.0 mg/kg/injection, schedule: Q01DX005 (ip), vehicle: Klucel (hydroxypropylcellulose) (HPC) 94 % of control | dose: 120.0 mg/kg/injection, schedule: Q01DX005 (ip), vehicle: Klucel (hydroxypropylcellulose) (HPC) 94 % of control | dose: 240.0 mg/kg/injection, schedule: Q01DX005 (ip), vehicle: Klucel (hydroxypropylcellulose) (HPC) 94 % of control

COc1ccc(C(=O)/C=C/c2ccc(OC)c(OC)c2OC)c(O)c1
inactive: [13] 99 % of control | [14] 99 % of control | dose: 400.0 mg/kg/injection, schedule: Q04DX003 (ip), vehicle: Klucel (hydroxypropylcellulose) (HPC) 90 % of control

C=CCSc1nc2ccc(N3C(=O)C4C5C=CC(C5)C4C3=O)cc2s1 (stereo unspecified)
inactive: [7] 87 % of control | [8] 92 % of control | [9] 93 % of control
